Assay results as given in patent publication US20110028463A1, “AMIDE COMPOUNDS” (Astellas Pharma Inc., priority 2007, published 2011).

Molecular target: T1, rat EP4 receptor (Rattus norvegicus, UniProt P43114)
T1 construct: expressed in transfected cells; host or cells: HEK293
Assay: Evaluation test on rat EP4 receptor affinity ([3H]PGE2 binding assay)
Conditions: [3H]PGE2 0.3 nM; membrane fraction of HEK293 cells expressing rat EP4; room temperature, 1 hour
Procedure: Evaluation Test on Rat EP4 Receptor Affinity
Cell Culture and Transfection
Using a 10 cm collagen-coated dish (Asahi Glass), HEK293 cells were cultured in a D-MEM culture medium, the culture medium was removed at a confluence (90 to 100% density state) and washed with a phosphate-buffered saline (PBS), and then the cells were detached with N,N,N′,N′-tetrakis(carboxymethyl)ethylenediamine (EDTA). The number of the cells were counted and seeded on a 15 cm collagen-coated dish to a confluence of 70%. The next day, to an Opti-MEM culture medium at 1.2 mL/dish was added Lipofectamine 2000 (Invitrogen) at 60 μL/dish, followed by being left to stand at room temperature for 5 minutes. A plasmid in which a rat EP4 (sequence number 1) had been inserted into a TA cloning site of pcDNA3.1-V5-His-topo was added thereto at 15 μg/dish. After leaving it to stand at room temperature for 30 minutes, the resultant was added to the dish and cultured for 20 to 24 hours. The cell culture was carried out in a CO2 incubator (37° C., 5% CO2).
Preparation of Membrane Fraction
The culture medium was removed by suction, 10 mL of cooled PBS was added thereto per 15 cm dish, and the cells were scraped using a cell scraper (Sumitomo Bakelite). After washing with cooled PBS (1,200 rpm, 4° C., 5 min), and then suspended in 6 mL of cooled 20 mM Tris-HCl (pH 7.4; Nakalai Tesque Inc., including 5 mM EDTA (Nakalai Tesque Inc.) per dish and homogenized using a Polytron, the homogenate was centrifuged (26,000 rpm, 20 min, 4° C.). The obtained precipitate was resuspended in cooled 20 mM Tris-HCl and homogenized again using a Polytron, and the homogenate was centrifuged (26,000 rpm, 20 min, 4° C.). The obtained precipitate was resuspended in 50 mM HEPES (pH 7.5; Dojindo Laboratories) to 1 mL per dish, homogenized using a Polytron, and freeze-stored at −80° C. as a membrane fraction. At this time, a part thereof was used for the measurement of the protein concentration. Measurement of the protein concentration was carried out using a Bio-Rad Protein assay kit (Bio-Rad Laboratories) in accordance with the appended standard Protocol in duplicate.
[^3H] PGE2 μL (final concentration 0.3 nM; Perkin Elmer), 100 μL (20 μg/well) of a membrane fraction prepared from the rat EP4 expression cell and 50 μL of a test compound were mixed in a 96-well microplate (Sumitomo Bakelite), incubated at room temperature for 1 hour, filtered by suction on a UniFilter-96 GF/B (Perkin Elmer) using a FilterMate Harvester (Perkin Elmer), and then washed three times with 300 μL/well of a cooled assay buffer. Dilution of [^3H]PGE2 and the membrane fraction was carried out using an assay buffer (50 mM HEPES, 10 mM MgCl2), and dilution of the test compound and the unlabeled PGE2 was carried out using DMSO and the assay buffer. Further, in the case a human serum albumin (HSA) is added, dilution was carried out using an assay buffer containing 4% HSA (final concentration 1%; Sigma). The UniFilter-96 GF/B was treated by preliminarily washing twice with 200 μL/well of a cooled assay buffer. The UniFilter-96 GF/B after filtration was dried in a dryer overnight, 50 μL/well of MicroScint20 (Perkin Elmer) was added thereto, and then the radioactivity was measured using a TopCount (Perkin Elmer). For measurement of the non-specific binding, an unlabeled PGE2 (final concentration 1 μM; Cayman) was added. All of the measurements were carried out in duplicate, and the specific binding amount was determined by subtracting the non-specific binding amount from the total binding amount.
According to Test method as above, the rat EP4 receptor affinity (Ki) of the compound of the formula (I) was measured. Ex represents Example Compound number.

T1 sequence (P43114 whole entry): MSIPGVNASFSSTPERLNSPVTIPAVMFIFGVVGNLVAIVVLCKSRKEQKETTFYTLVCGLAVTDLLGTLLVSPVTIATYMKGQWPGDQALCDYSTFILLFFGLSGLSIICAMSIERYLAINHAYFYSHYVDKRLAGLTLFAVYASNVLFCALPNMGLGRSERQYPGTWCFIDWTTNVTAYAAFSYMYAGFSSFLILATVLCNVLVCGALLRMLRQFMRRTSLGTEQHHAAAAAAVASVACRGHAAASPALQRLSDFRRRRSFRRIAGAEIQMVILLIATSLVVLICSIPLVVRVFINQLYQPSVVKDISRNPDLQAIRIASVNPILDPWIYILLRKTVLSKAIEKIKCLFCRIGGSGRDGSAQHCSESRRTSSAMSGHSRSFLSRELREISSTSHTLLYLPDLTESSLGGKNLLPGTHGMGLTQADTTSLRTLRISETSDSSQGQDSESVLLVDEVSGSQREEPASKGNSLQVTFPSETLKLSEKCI

SMILES	Ki
C[C@H](NC(=O)c1cccn1Cc1ccc(Cl)cc1)c1ccc(C(=O)O)cc1 [Example 39]	37 nM
O=C(NCC1CCC(C(=O)O)CC1)c1cccc2ccn(Cc3ccc(Cl)cc3)c12 (stereo not shown) [Example 110]	12 nM
C[C@H](NC(=O)c1cccc2ccn(Cc3ccc(Cl)cc3)c12)c1ccc(-c2noc(=O)[nH]2)cc1 [Example 15]	3.5 nM
C[C@H](NC(=O)c1cccc2nc(Nc3ccc(Cl)cc3)oc12)c1ccc(C(=O)O)cc1 [Example 46]	11 nM
C[C@H](NC(=O)c1cc2ccccc2n1Cc1ccc(Cl)cc1)c1ccc(C(=O)O)cc1 [Example 37]	9.9 nM
CC(NC(=O)c1cccc2ccn(Cc3ccc(Cl)cc3)c12)[C@H]1CC[C@H](C(=O)O)CC1 (stereo partly shown) [Example 61]	12 nM
C[C@H](NC(=O)c1sccc1N(C)Cc1ccc(Cl)cc1)c1ccc(C(=O)O)cc1 [Example 7]	16 nM
C[C@H](NC(=O)c1ccccc1-n1ccc2cc(Cl)ccc21)c1ccc(C(=O)O)cc1 [Example 50]	15 nM
O=C(O)c1ccc(CNC(=O)c2cccc3ccn(Cc4ccc(Cl)cc4)c23)cc1 [Example 111]	2.6 nM
O=C(O)c1ccc2c(ccn2NC(=O)c2ccccc2Cc2ccc(Cl)cc2)c1 [Example 4, 1-{[2-(4-chlorobenzyl)benzoyl]amino}-1H-indole-5-carboxylic acid]	7.5 nM
C[C@H](NC(=O)c1cccc2cnn(Cc3ccc(Cl)cc3)c12)c1ccc(C(=O)O)cc1 [Example 47]	5.5 nM

The next compounds have a lower Ki than those just listed; values first:

Ki	SMILES
1.6 nM	C[C@H](NC(=O)c1cccc2ccn(Cc3ccc4ccccc4n3)c12)c1ccc(C(=O)O)cc1 [Example 57]
0.51 nM	C[C@H](NC(=O)c1cc(Cl)cc2ccn(Cc3ccc(Cl)cc3)c12)c1ccc(C(=O)O)cc1 [Example 21]
0.83 nM	CN(NC(=O)c1cc(Cl)cc2ccn(Cc3ccc(Cl)cc3)c12)c1ccc(C(=O)O)cc1 [Example 31]
0.8 nM	CN(NC(=O)c1cccc2ccn(Cc3ccc(Cl)cc3)c12)c1ccc(C(=O)O)cc1 [Example 8]
0.79 nM	C[C@H](NC(=O)c1cccc2c1N(Cc1ccc(Cl)cc1)CC2)c1ccc(C(=O)O)cc1 [Example 22]
